This passage reports IC50 and viability, T/C results from PubChem BioAssay AID1845210 (Molecular Pharmacology Branch, DTP, NCI, 2023).

“And” between values parts separate entries of the source, which are not always exact repeats. Equal values may be shown once.

This assay relates to NCI-H226 complex tumor spheroids, viability. The assay is described as follows: Anticancer human tumor NCI-H226 cell line growth inhibition.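 As to all read-outs here: spheroids exposed to compound for 7 days.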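 As to viability, T/C: 100% = DMSO vehicle control viability.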 Particulars: for viability, T/C: stronger effect = lower value. In outline: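 Single agents and combinations were tested on spheroids built from tumor cells plus HUVEC and hMSC, at half-log dilutions starting at or near clinical Cmax, else 10 microM; final DMSO 0.25% (v/v).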

Take `CC1COCCN1c1cc(-c2ccnn2C)c2ccnc(-c3ccn[nH]3)c2n1` (configuration not stated) + COc1cc2c(cc1O)CCNC21CSC2c3c(OC(C)=O)c(C)c4c(c3C(COC1=O)N1C(O)C3Cc5cc(C)c(OC)c(O)c5C(C21)N3C)OCO4: the concentration for half-maximal inhibition (IC50) (curve of first compound, second compound 30 pM) came to 3.12 µM; the concentration for half-maximal inhibition (IC50) (curve of first compound, second compound 94.9 pM) is above 10 µM; the 50% inhibitory concentration (IC50) (curve of first compound, second compound 0.0003 µM) is above 10 µM; the half-inhibitory concentration (IC50) (curve of first compound, second compound 0.000949 µM) was determined as 3.65 µM; the IC50 (curve of first compound, second compound 0.003 µM) is below 0.0316 µM. For the same compound, the viability, T/C by setting is: (second compound 30 pM, first compound 0.0316 µM) 120%; (second compound 30 pM, first compound 0.1 µM) 108%; (second compound 30 pM, first compound 0.316 µM) 89.1%; (second compound 30 pM, first compound 1 µM) 61.3%; (second compound 30 pM, first compound 3.16 µM) 50.9%; (second compound 30 pM, first compound 10 µM) 45.2%. Also, the viability, T/C (second compound 94.9 pM, first compound 0.0316 µM) is 106%; the viability, T/C (second compound 94.9 pM, first compound 0.1 µM) is 112%; the viability, T/C (second compound 94.9 pM, first compound 0.316 µM) was 80%; the viability, T/C (second compound 94.9 pM, first compound 1 µM) is 62.1%; the viability, T/C (second compound 94.9 pM, first compound 3.16 µM) was 53.5%; the viability, T/C (second compound 94.9 pM, first compound 10 µM) was 50.4%. Further, the viability, T/C was 109% (second compound 0.0003 µM, first compound 0.0316 µM); 108% (second compound 0.0003 µM, first compound 0.1 µM); 98.9% (second compound 0.0003 µM, first compound 0.316 µM); 71.3% (second compound 0.0003 µM, first compound 1 µM); 57.8% (second compound 0.0003 µM, first compound 3.16 µM); 56.7% (second compound 0.0003 µM, first compound 10 µM). In addition, the viability, T/C (second compound 0.000949 µM, first compound 0.0316 µM) is 126%; the viability, T/C (second compound 0.000949 µM, first compound 0.1 µM) was 102%; the viability, T/C (second compound 0.000949 µM, first compound 0.316 µM) was 90.6%; the viability, T/C (second compound 0.000949 µM, first compound 1 µM) was 58.8%; the viability, T/C (second compound 0.000949 µM, first compound 3.16 µM) was 53%; the viability, T/C (second compound 0.000949 µM, first compound 10 µM) is 43.5%. Moreover, the viability, T/C runs as follows: (second compound 0.003 µM, first compound 0.0316 µM) 1.51%; (second compound 0.003 µM, first compound 0.1 µM) 1.41%; (second compound 0.003 µM, first compound 0.316 µM) 1.32%; (second compound 0.003 µM, first compound 1 µM) 0.82%; (second compound 0.003 µM, first compound 3.16 µM) 0.74%; (second compound 0.003 µM, first compound 10 µM) 0.49%.

On to `Cc1cc(C)c(CNC(=O)c2cc(-c3ccc(CN4CCOCC4)cc3)cc3c2cnn3C2CCCC2)c(=O)[nH]1`, for which the viability, T/C was 100% (2×) and 94.5% (compound 0.0316 µM); 102% and 112% and 103% (compound 0.1 µM); 99% and 107% and 112% (compound 0.316 µM); 83.4% and 110% and 97.2% (compound 1 µM); 91% and 115% and 98.1% (compound 3.16 µM); 91.5% and 118% and 100% (compound 10 µM). For the same compound, the concentration for half-maximal inhibition (IC50) (curve of compound) was above 10 µM.
